# Data: patent publication US20210301349A1, “COMPOSITIONS AND METHODS FOR TREATING A TUMOR SUPPRESSOR DEFICIENT CANCER” (BETH ISRAEL DEACONESS MEDICAL CENTER, INC., priority 2016, published 2021)
# Key:
# [1] = test system: Pten^pc−/−; Trp53^pc−/− tumors (anterior prostate lobes); assay: Histological analysis of treated Pten^pc−/−; Trp53^pc−/− tumors; format: in vivo, mouse; conditions: Trp53^pc−/− mice, 10 days of i.p. treatment, versus vehicle
# Method: (§1) Mice were allocated at random to experimental groups and studies were performed in an unblended manner. For treatment with the CXCR2 antagonist, SB225002 (Cayman Chemical #13336) was dissolved in DMSO (10 mg/ml) and diluted in vehicle (0.9% NaCl, 0.3% Tween 80) for in vivo administration. Mice (4 months of age) were treated daily for 10 days by intraperitoneal injection (5 mg/kg) and prostate tumor tissue (anterior lobes) was subjected to Flow Cytometry and histological analysis. For MRI analysis, mice (4 months of age) were treated daily for 21 days (Pten^pc−/−; Zbtb7a^pc−/−), for 14 days (Pten^pc−/−; Trp53^pc−/−) or for 14 days (Pten^pc−/−; Pml^pc−/−) by intraperitoneal injection (5 mg/kg). […] Tumor volume quantification was performed by using VivoQuant and Image J software. […]
# For western blotting, cell lysates were prepared by homogenizing tumor tissue with NP40 Buffer (Boston Bioproducts) supplemented with protease (Roche) and HALT phosphatase inhibitor cocktails (Thermo Scientific) and subsequently subjected to SDS-Gel separation (Invitrogen) and western blotting. […] Western blots were quantified using Image J software. […] Embedding and hematoxylin and eosin staining of sections were performed by the Histology Core at BIDMC and analyzed by a pathologist. […]
# [2] = test system: Pten^pc−/−; Zbtb7a^pc−/− prostate tumors; assay: Flow cytometry of immune infiltrate in treated Pten^pc−/−; Zbtb7a^pc−/− prostate tumors; format: in vivo, mouse; conditions: Zbtb7a^pc−/− prostate tumors after treatment
# Method: as §1, with “mg/kg). For depletion of Gr-1+/CD11b+ cells, Ly6G-depletion antibody (1A8, BioXcell) and control Rat IgG2a antibody (BioXcell) were diluted in phosphate-buffered saline (PBS) for in vivo administration. Mice (4 months of age) were treated every other day for 10 days by intraperitoneal injection (200-300 μg/mouse).” for “mg/kg).”
# For Flow Cytometry, spleen and lymph node single cell suspensions were prepared by mashing the tissue in 2% FBS/PBS. […] All staining mixtures were analyzed on a BD LSR II flow cytometer (Becton Dickinson). Resulting profiles were further processed and analyzed using the FlowJo 8.7 software.
smiles,measurement,setting,value
O=C(Nc1ccc([N+](=O)[O-])cc1O)Nc1ccccc1Br [SB225002],tumor burden by histological analysis,[1],reduced tumor burden
same,tumor burden by histological analysis,[1]; listed as CXCR2 inhibitor,significantly diminished tumor involvement
same,intra-tumoral Gr-1+/CD11b+ cells,[2],decrease of Gr-1+/CD11b+ cells
